Data from patent publication US20230067644A1, “DRG-MDM2-3 FOR USE AS A NOVEL MOUSE DOUBLE MINUTE 2 (MDM2) INHIBITOR” (BAHCESEHIR UNIVERSITESI, priority 2020, published 2023).
Like-named read-outs stand apart in the source and are kept apart here.

How the values were obtained:
HCT-116 cells [1] = experiment: MTT cell proliferation assay; assay type: cell-based; conditions: Homo sapiens, HCT-116, 100 μM, read-out: cell viability decreased
Protocol: (§1) HCT 116 colon cancer and MDA-MB231 breast cancer cell lines are used in cell culture experiments.
For proliferation inhibition analysis, cells were seeded in 24 well plates at 1×10^4 cells/well cells overnight without drug treatment. During the cell proliferation experiments, we performed five days of treatment in each cell line and repeated the experiments three times to check each experiment. No significant difference in cell viability was observed after the third day. Therefore, cells with different drug concentrations were treated for two days. After 48 hours, MTT was applied to the cells and incubated at 37° C. for 4 hours, formazan was solubilized with DMSO (Sigma-Aldrich, St. Louis, USA) and absorbance was measured at 570 nm.
Molecule concentration was 100 μM, the lower concentrations were not shown. Vehicle represents the groups treated with only %0,5 DMSO and Untreated represents no molecule treated group. Molecule responses were evaluated by cell viability which is obtained by spectrophotometric analysis of cells upon MTT treatment at 12 h, 24 h, 48 h and 72 h. […] Statistical significance in graphs was determined by comparing each treatment group with DMSO control using ANOVA testing and significance is considered as p<0.001 (FIG. 2).
As a result, cell viability decreased by 40% at the end of the first day and reached 60% at the end of the third day. […]

HCT-116 cells [2] = experiment: Microscopic evaluation of cells (proliferation, apoptotic morphology); assay type: cell-based
Protocol: Cells were photographed and observed under microscope for three days.
As a result, cell viability decreased by 40% at the end of the first day and reached 60% at the end of the third day. Any cell proliferation change and apoptotic cell morphology were not observed in the untreated and vehicle groups. Moreover, differences in cell morphology were also observed. […] Upon treatment with the compound of formula I according to present invention with 100 μM concentration, cells having the morphology of apoptotic cells were observed starting from the 3rd hour.

MDA-MB231 cell lines = experiment: MTT cell viability assay (IC50); assay type: cell-based; conditions: Homo sapiens, MDA-MB-231, single dose of treatment, 10^-9 to 10^-4 M, absorbance 570 nm
Protocol: as §1
Cells were treated with high-glucose DMEM medium (Biosera) supplemented with 10% FBS (Gibco) and 1× penicillin/streptomycin (Multicell). The assay was designed to contain 10,000 cells for each well of 24-well cell culture plates before being treated with inhibitors.
Compound of formula I was dissolved with DMSO as 20 mM stock. 24 hours later, the solution was diluted in DMEM with 10% FBS and final concentration of vehicle DMSO was 0.5% at maximum. Therefore, the vehicle group included 0.5% DMSO concentration in experiments. Intensive cultivation of cells causes a decrease in proliferation capacity.
The MTT cell viability assay was used to detect values of half-maximal inhibitory concentration (IC50). Different concentrations of compound of formula I ranging between 10^−9 to 10^−4 M were tested on MDA-MB231 cell lines with single dose of treatment. 570 nm absorbance values were recorded and IC50 values were calculated by dose response—inhibition curves and nonlinear regression analysis on Graphpad Prism 8 software.

MDM2 protein = MDM2 protein (Homo sapiens, UniProt Q00987); conditions: background statement; cited from earlier work
Chain of MDM2 protein (Q00987 whole entry, species assumed): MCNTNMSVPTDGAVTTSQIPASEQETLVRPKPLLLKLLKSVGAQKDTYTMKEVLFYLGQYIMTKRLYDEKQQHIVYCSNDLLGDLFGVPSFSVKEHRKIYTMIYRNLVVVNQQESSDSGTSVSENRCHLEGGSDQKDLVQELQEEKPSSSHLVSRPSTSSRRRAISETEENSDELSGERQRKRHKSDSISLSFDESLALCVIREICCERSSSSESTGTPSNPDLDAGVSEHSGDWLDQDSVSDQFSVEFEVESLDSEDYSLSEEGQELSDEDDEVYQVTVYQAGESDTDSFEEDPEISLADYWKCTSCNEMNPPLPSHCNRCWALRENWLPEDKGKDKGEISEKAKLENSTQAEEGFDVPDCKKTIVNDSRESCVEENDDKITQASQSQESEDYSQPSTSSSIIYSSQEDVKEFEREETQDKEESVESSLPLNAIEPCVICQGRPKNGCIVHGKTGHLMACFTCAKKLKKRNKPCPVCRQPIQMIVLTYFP

Row | IC50 (MDA-MB231 cell lines) [µM] | Molecule | cytotoxicity at 100 µM (HCT-116 cells [1]; at the end of the first day) [%] | cytotoxicity at 100 µM (HCT-116 cells [1]; at the end of the third day) [%] | hour from which cells having the morphology of apoptotic cells were observed (HCT-116 cells [2]; 100 μM concentration) [hour] | apoptotic activity (onset, microscopy) (HCT-116 cells [2]; FIG. 3) | proliferation and cell structures under microscope (HCT-116 cells [2]; observed for three days, vs vehicle and untreated, FIG. 3) | binding affinity to MDM2 protein relative to a natural p53 peptide (MDM2 protein) [fold]
1 | 41 | O=C(CCc1ccccc1Cl)NC(CC1CNc2ccccc21)C(=O)O (stereo not shown) [compound of formula I] | 40 | 60 | 3 | clear apoptotic activity from the twelfth hour | reduced proliferation and showed apoptotic cell structures | 
2 |  | MI-319 |  |  |  |  |  | 500
